US7452880B2, “Substituted pyrazolo [3,4-d] pyrimidines and methods of using the same” (priority 2004, dated 2008)

Assays:
[1] = biological target: T1, p38 MAP kinase (Homo sapiens, UniProt Q16539); test: p38 (MAP) kinase in vitro assay (transfer of γ-33P-phosphate from ATP to Myelin Basic Protein); format: biochemical; conditions: phosphorylated recombinant p38 MAP kinase, MBP substrate, γ-33P-ATP, 30° C.
T1 construct: made in house; host or cells: E. coli (co-expressed with SEK-1 and MEKK to obtain the phosphorylated form)
Method: This example illustrates a p38 (MAP) kinase in vitro assay useful for evaluating the compounds of the invention.
The p38 MAP kinase inhibitory activity of compounds of this invention in vitro was determined by measuring the transfer of the γ-phosphate from γ-^33P-ATP by p-38 kinase to Myelin Basic Protein (MBP), using a minor modification of the method described in Ahn, et al., J. Biol. Chem. 266:4220-4227 (1991).
The phosphorylated form of the recombinant p38 MAP kinase was co-expressed with SEK-1 and MEKK in E. Coli (see, Khokhlatchev, et al., J. Biol. Chem. 272:11057-11062 (1997)) and then purified by affinity chromatography using a Nickel column.
The phosphorylated p38 MAP kinase was diluted in kinase buffer (20 mM 3-(N-morpholino)propanesulfonic acid, pH 7.2, 25 mM β-glycerol phosphate, 5 mM ethylene glycol-bis(beta-aminoethyl ether)-N,N,N′,N′-tetraacetic acid, 1 mM sodium ortho-vanadate, 1 mM dithiothreitol, 40 mM magnesium chloride). Test compound dissolved in DMSO or only DMSO (control) was added and the samples were incubated for 10 min at 30° C. The kinase reaction was initiated by the addition of a substrate cocktail containing MBP and γ-^33P-ATP. […] The phosphorylated MBP was then separated from the residual γ-^33P-ATP using a phosphocellulose membrane (Millipore, Bedfrod, Mass.) and quantitated using a scintillation counter (Packard, Meriden, Conn.).

T1 sequence (Q16539 whole entry): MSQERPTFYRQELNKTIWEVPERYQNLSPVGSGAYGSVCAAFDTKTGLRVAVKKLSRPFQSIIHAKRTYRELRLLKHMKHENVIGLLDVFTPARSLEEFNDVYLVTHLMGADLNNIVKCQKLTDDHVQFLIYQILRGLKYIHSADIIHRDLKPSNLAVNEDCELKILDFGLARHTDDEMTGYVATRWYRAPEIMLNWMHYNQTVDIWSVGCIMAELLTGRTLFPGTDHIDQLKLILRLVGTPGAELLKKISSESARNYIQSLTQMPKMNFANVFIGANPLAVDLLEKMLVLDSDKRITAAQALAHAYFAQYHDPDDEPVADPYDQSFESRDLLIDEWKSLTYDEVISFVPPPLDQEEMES

Compound	melting point	IC50 [1]
COc1ccc(F)c(-c2n[nH]c3nc(Oc4ccc(F)cc4F)ncc23)c1 [Compound 64, 6-(2,4-Difluoro-phenoxy)-3-(2-fluoro-5-methoxy-phenyl)-1H-pyrazolo[3,4-d]pyrimidine]	177.6 to 183.2 °C	
Clc1ccccc1Oc1ncc2c(-c3cccs3)n[nH]c2n1 [Compound 22, 6-(2-Chloro-phenoxy)-3-thiophen-2-yl-1H-pyrazolo[3,4-d]pyrimidine]	221.3 to 223.1 °C	
FC(F)(F)c1ccccc1Oc1ncc2c(-c3ccccc3Cl)n[nH]c2n1 [Compound 13, 3-(2-Chloro-phenyl)-6-(2-trifluoromethyl-phenoxy)-1H-pyrazolo[3,4-d]pyrimidine]	55.3 to 56.1 °C	
COc1ccccc1-c1n[nH]c2cc(Oc3ccc(F)cc3F)cnc12 [Compound 98, 6-(2,4-Difluoro-phenoxy)-3-(2-methoxy-phenyl)-1H-pyrazolo[4,3-b]pyridine]	143.2 to 144.9 °C	
Fc1ccc(Oc2ncc3c(-c4ccccc4Cl)n[nH]c3n2)c(F)c1 [Compound 3, 3-(2-Chloro-phenyl)-6-(2,4-difluoro-phenoxy)-1H-pyrazolo[3,4-d]pyrimidine]		~10 nM
